Laboratory results published in patent US4395552A, “Antimicrobial bis-imidazolo-pyridine compound” (The Purdue Frederick Company, priority 1980, dated 1983).
Counter-ions that a name gives are not always drawn.

Columns and labels:
[1] = test system: Escherichia coli; test: minimum inhibitory concentration, antibacterial spectrum (Table I); type: cell-based; details: 32 P.P.M.
Method: (§1) The compounds listed in Table I below were tested for their antibacterial spectrum by the method of:
(§2) Silverblatt, F. and M. Turck, 1969. Antimicrobial Agents and Chemothreapy; 1968, p. 279-285.
(§3) Wallace, J. F., E. Atlas, D. M. Bear, N. K. Brown, H. Clark and M. Turk, 1971. Antimicrobial Agents and Chemotherapy; 1970, p. 223-266.

[2] = test system: Pseudomonas aeruginosa; test: as above; type: cell-based; details: 32 P.P.M.
Method: as §1, §2, §3

[3] = test system: Staphylococcus aureus; test: as above; type: cell-based; details: 32 P.P.M.
Method: as §1, §2, §3

[4] = test system: Diplococcus pneumoniae; test: minimum inhibitory concentration / in vitro spectrum of activity; type: cell-based; details: Streptococcus pneumoniae, footnote of Table I
Method: as §1, §2, §3

[5] = test system: Klebsiella pneumonia; test: as above; type: cell-based; details: Klebsiella pneumoniae, footnote of Table I
Method: as §1, §2, §3

[6] = test system: Salmonella typhosa; test: as above; type: cell-based; details: Salmonella enterica, read-out: minimum inhibitory concentration (MIC)
Method: as §1, §2, §3

[7] = test system: Streptococcus pyogenes; test: as above; type: cell-based; details: footnote of Table I
Method: as §1, §2, §3

[8] = LD50 upon oral administration to mice; details: mouse, in vivo
[9] = test system: Candida albicans; test: minimum inhibitory concentration, antimicrobial spectrum (Table I); type: cell-based; details: 32 P.P.M.
Method: as §1, §2, §3

MIC [1] [µg/mL] | MIC [2] [µg/mL] | MIC [3] [µg/mL] | Structure (SMILES) | also measured
8 | – | – | N=C(NCCCCCCNC(=N)Nc1nc2cc(Cl)c(S(N)(=O)=O)cc2[nH]1)Nc1nc2cc(Cl)c(S(N)(=O)=O)cc2[nH]1 [Compound 1045, N'-N"-bis-[2-(5'-chloro-6'-sulfamylbenzimidazole)]-2,9-diazadecane diimidamide dihydrochloride] | –
8 | – | 8 | N=C(NCCCCCCCNC(=N)Nc1nc2ccccc2[nH]1)Nc1nc2ccccc2[nH]1 [Compound 1046, N'-N"-bis-[2-benzimidazole]-2,10-diazaundecane diimidamide dihydrochloride] | MIC [9]: 16 µg/mL
32 | – | – | N=C(NCCNC(=N)Nc1nc2ccccc2[nH]1)Nc1nc2ccccc2[nH]1 [Compound 1069, N'-N"-bis[2-benzimidazole]-2,5-diazahexane diimidamide dihydrochloride] | –
4 | 16 | 16 | Cc1ccc2nc(NC(=N)NCCNC(=N)Nc3nc4ccc(C)cc4[nH]3)[nH]c2c1 [Compound 1072, N'-N"-bis-[2-(6-methylbenzimidazole)]-2,5-diazahexane diimidamide dihydrochloride monohydrate] | –
4 | 8 | 8 | Cc1ccc2nc(NC(=N)NCCCCCNC(=N)Nc3nc4ccc(C)cc4[nH]3)[nH]c2c1 [Compound 1074, N'-N"-bis-[2-(6-methylbenzimidazole)]-2,8-diazanonane diimidamide dihydrochloride hemipentahydrate] | MIC [9]: 16 µg/mL
2 | – | 2 | N=C(NCCCCCNC(=N)Nc1nc2ccc(Cl)cc2[nH]1)Nc1nc2ccc(Cl)cc2[nH]1 [Compound 1075, N'-N"-bis-[2-(6-chlorobenzimidazole)]-2,8,diazanonane diimidamide dihydrochloride hydrate] | –
8 | – | 8 | N=C(NCCCCCNC(=N)Nc1nc2ccccc2[nH]1)Nc1nc2ccccc2[nH]1 [Compound 1079, N'-N"-bis-[2-benzimidazole]-2,8-diazanonane diimidamide dihydrochloride dihydrate] | –
1 | – | 1 | N=C(NCCCCCCCCNC(=N)Nc1nc2ccccc2[nH]1)Nc1nc2ccccc2[nH]1 [Compound 1080, N'-N"-bis-[2-benzimidazole]-2,11-diazadodecane diimidamide dihydrochloride dihydrate] | –
1 | 8 | 1 | Cc1ccc2nc(NC(=N)NCCCCCCNC(=N)Nc3nc4ccc(C)cc4[nH]3)[nH]c2c1 [Compound 1081, N'-N"-bis-[2-(6-methyl-benzimidazole)]-2,9-diazadecane diimidamide dihydrochloride dihydrate] | MIC [9]: 8 µg/mL
– | – | 5 | N=C(NCCNC(=N)Nc1nc2ccc(Cl)cc2[nH]1)Nc1nc2ccc(Cl)cc2[nH]1 [Compound 1105, N'-N"-bis-[2-(6-chlorobenzimidazole)]-2,5-diazahexanediimidamide dihydrochloride sesquihydrate] | –

Structure (SMILES) | MIC [1] [µg/mL] | MIC [2] [µg/mL] | MIC [3] [µg/mL] | also measured
N=C(NCCCCCCNC(=N)Nc1nc2ccccc2[nH]1)Nc1nc2ccccc2[nH]1 [Compound 1024, N'-N"-bis-[2-benzimidazole]-2,9-diazadecane diimidamide dihydrochloride] | 4 | 16 | 4 | MIC [4]: 2 µg/mL; MIC [5]: 500 µg/mL; MIC [6]: 4 µg/mL; MIC [7]: 1 µg/mL; LD50 [8]: 4000 mg/kg
